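Growth conditions: 96-well plates. Treatment: test compound, 48 hours, 5 concentrations. Analysis: linear interpolation between bracketing concentrations; unreached endpoints set to highest concentration. TGI is the concentration that stops growth completely.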

Our source for the TGI values is PubChem BioAssay (NCI).

Some test systems named below: UACC-62 melanoma; NCI/ADR-RES ovarian; IGROV1 ovarian; OVCAR-8 ovarian; SW-620 colon; T-47D breast; NCI-H226 lung; NCI-H460 lung; SF-539 CNS.
What all share (assay): growth of human tumour cells (NCI), 48 h

For `Cc1ccc2c(=O)c(C(=O)Nn3c(C)csc3=S)c[nH]c2n1`, the TGI in the assay on UACC-62 melanoma, in the assay with NCI/ADR-RES ovarian, in the assay on IGROV1 ovarian, in the assay with OVCAR-8 ovarian, in the assay with SW-620 colon and in the assay with T-47D breast was more than 100 µM throughout. The TGI in the assay on NCI-H226 lung and in the assay with NCI-H460 lung was more than 100 µM throughout.
For the molecule `COc1ccc(NC(=O)CC(=O)n2nc(C)c(N=Nc3cccc(C)c3)c2C)cc1`, the TGI in the assay on UACC-62 melanoma, in the assay on NCI/ADR-RES ovarian, with SF-539 CNS, with OVCAR-8 ovarian, with SW-620 colon and with T-47D breast was more than 100 µM throughout. For the same molecule, the TGI in the assay with NCI-H226 lung and with NCI-H460 lung was more than 100 µM in each case.
For `COc1cc(C2SC(C)C(=O)N2c2ccc(-c3csc(NS(=O)(=O)c4ccc(Cl)c(OC)c4)n3)cc2)ccc1O` (stereo not given), the TGI was 55.3 µM in the assay with UACC-62 melanoma; more than 100 µM in the assay with NCI/ADR-RES ovarian; more than 100 µM in the assay with SF-539 CNS; more than 100 µM with IGROV1 ovarian; more than 100 µM with OVCAR-8 ovarian; more than 100 µM in the assay with SW-620 colon. Besides, the TGI in the assay on T-47D breast, in the assay on NCI-H226 lung and in the assay with NCI-H460 lung was more than 100 µM throughout.
On to `O=c1[nH]c(=O)n(C2CC(O)C(CO)O2)cc1NN=NCCCc1ccccc1` (stereo not given), for which the TGI in the assay with UACC-62 melanoma, in the assay with NCI/ADR-RES ovarian, with SF-539 CNS, in the assay with IGROV1 ovarian, with OVCAR-8 ovarian and in the assay on T-47D breast was more than 100 µM throughout. Moreover, the TGI in the assay on NCI-H226 lung and in the assay with NCI-H460 lung was more than 100 µM each time.
With `Brc1ccc2c3c1[C@H]1O[C@H]1c1cccc(c1-3)[C@@H]1O[C@H]21`, the TGI with UACC-62 melanoma is 32.5 µM; with NCI/ADR-RES ovarian, 76.8 µM; in the assay on OVCAR-8 ovarian it was 37.7 µM; in the assay on T-47D breast, 26.8 µM; with NCI-H226 lung, 64 µM.
Consider `O=c1[nH]c2ccccc2c(O)c1/C=N/C(=S)NCc1ccccc1`, for which the TGI in the assay with UACC-62 melanoma, with NCI/ADR-RES ovarian, with SF-539 CNS, with IGROV1 ovarian, in the assay on OVCAR-8 ovarian and in the assay on SW-620 colon was more than 100 µM in each case. Also, the TGI in the assay with T-47D breast and in the assay with NCI-H226 lung was more than 100 µM in each case.
`COc1cc(C2c3cc4c(cc3OC(Nc3ccccc3)C2C)OCO4)cc(OC)c1O` (stereo not given): the TGI in the assay on UACC-62 melanoma was determined as 23 µM; in the assay on NCI/ADR-RES ovarian, 8.02 µM; with SF-539 CNS it was 8.9 µM; in the assay on IGROV1 ovarian, 48 µM; in the assay on OVCAR-8 ovarian, 23.8 µM; in the assay on SW-620 colon, 16.3 µM. Further, the TGI in the assay with T-47D breast was more than 100 µM; with NCI-H226 lung, 39.8 µM.
In the case of `CCCCCCNC(=O)CCC(NC(=O)c1ccc(N(C)Cc2cnc3nc(N)nc(N)c3n2)cc1)C(=O)NCCCCCC` (stereo not given), the TGI is more than 100 µM in the assay with UACC-62 melanoma; more than 100 µM in the assay on NCI/ADR-RES ovarian; 97.2 µM in the assay with IGROV1 ovarian; more than 100 µM in the assay with OVCAR-8 ovarian; more than 100 µM in the assay with SW-620 colon; more than 100 µM in the assay with T-47D breast. Further, the TGI in the assay with NCI-H226 lung and with NCI-H460 lung was more than 100 µM throughout.
With `CCOC(=O)c1cc(I)c(-c2cc(C)no2)n1C`, the TGI in the assay on UACC-62 melanoma, with NCI/ADR-RES ovarian, in the assay on SF-539 CNS, with OVCAR-8 ovarian, in the assay on SW-620 colon and in the assay on T-47D breast was more than 100 µM throughout. The TGI with NCI-H226 lung and with NCI-H460 lung was more than 100 µM each time.
Take `COC(=O)[C@H]1NC(=O)CCSSC1(C)C`: the TGI in the assay on UACC-62 melanoma, with NCI/ADR-RES ovarian, in the assay on SF-539 CNS, in the assay on IGROV1 ovarian, in the assay on OVCAR-8 ovarian and with SW-620 colon was more than 100 µM each time. Further, the TGI in the assay with T-47D breast and in the assay with NCI-H226 lung was more than 100 µM in each case.
In the case of `COC1CC(OC2C(C)OC(OC3C(C)OC(OC4C(O)CC(O[C@H]5CC[C@@]6(C)C(=CC[C@]7(O)[C@@H]6C[C@@H](OC(C)=O)[C@@]6(C)[C@]7(O)CC[C@@]6(O)C(C)=O)C5)OC4C)CC3OC)CC2OC)OC(C)C1O` (stereo not given in full), the TGI in the assay with UACC-62 melanoma, in the assay on NCI/ADR-RES ovarian, in the assay with SF-539 CNS, in the assay on IGROV1 ovarian, in the assay on OVCAR-8 ovarian and in the assay with SW-620 colon was more than 12.5 µM in each case. For the same molecule, the TGI with T-47D breast and in the assay with NCI-H226 lung was more than 12.5 µM in each case.
Turning to `CCCCCc1cc2cc3c(c(O)c2c(=O)[nH]1)C1(CCC3)C(O)=c2c(=O)c3c(=O)cc(OC)c(=O)c=3c(=O)c2=C1O` (stereo not given), the TGI is 3.29 µM in the assay on UACC-62 melanoma; 15.3 µM with NCI/ADR-RES ovarian; 3.48 µM with IGROV1 ovarian; 3.25 µM in the assay on OVCAR-8 ovarian; 3.04 µM in the assay on SW-620 colon; 2.76 µM in the assay with T-47D breast. In addition, the TGI in the assay on NCI-H226 lung is 4.21 µM; with NCI-H460 lung, 3.12 µM.
Consider `O=C(c1ccccc1)n1cc(-c2ccccc2)c2c(=O)[nH]cnc21`, for which the TGI in the assay on UACC-62 melanoma, with NCI/ADR-RES ovarian, in the assay on SF-539 CNS, in the assay with IGROV1 ovarian, in the assay on OVCAR-8 ovarian and in the assay with SW-620 colon was more than 100 µM in each case. Besides, the TGI in the assay with T-47D breast and with NCI-H226 lung was more than 100 µM in each case.
Take `CCOC(=O)C(CC(C)C)NC(=O)CSc1nnc(COc2ccc(Cl)cc2)n1-c1ccccc1` (stereo not given): the TGI in the assay on UACC-62 melanoma was determined as 30.7 µM; in the assay with NCI/ADR-RES ovarian it was 44.3 µM; with SF-539 CNS, 42.3 µM; in the assay with IGROV1 ovarian, 29.2 µM; with SW-620 colon, 49.7 µM; with T-47D breast, 45.3 µM. In addition, the figures for the TGI in the assay on NCI-H226 lung and with NCI-H460 lung were 48.5 µM and 29.3 µM, respectively.
Consider `O=C1Nc2ccccc2Cn2c1cc1oc(-c3ccccc3)cc12`, for which the TGI with UACC-62 melanoma was more than 100 µM; with NCI/ADR-RES ovarian, more than 100 µM; in the assay on SF-539 CNS it was 74.3 µM; in the assay on IGROV1 ovarian, more than 100 µM; in the assay on OVCAR-8 ovarian, more than 100 µM; in the assay with SW-620 colon, more than 100 µM. The values for the TGI with T-47D breast and in the assay on NCI-H460 lung were 92.6 µM and more than 100 µM, respectively.
As to `CSCCCS/C1=C/CCCCCCCCCC1`, the TGI in the assay with UACC-62 melanoma, in the assay with NCI/ADR-RES ovarian, in the assay with SF-539 CNS, in the assay with IGROV1 ovarian, with T-47D breast and in the assay with NCI-H226 lung was more than 100 µM in each case. This molecule yielded a TGI with NCI-H460 lung of more than 100 µM.
